Measured values published in PubChem BioAssay AID256 (DTP/NCI, 2004).
“And” between values parts separate entries of the source, which are not always exact repeats. Equal entries are not always repeated. Inconclusive results and toxic doses are left out. How the source made its calls: active means survival T/C of 150% or more; inactive means T/C below 125% in these data.

System: CD2F1 mice, L1210 leukemia ip, survival T/C
Test: NCI In Vivo Anticancer Drug Screen. Data for tumor model L1210 Leukemia (intraperitoneal) in CD2F1 (CDF1) mice
Details: higher = longer survival
Summary of the method: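 Mice carrying a transplanted tumor received test compound or vehicle alone. The value is the measurement in the treated group divided by that in the vehicle-treated control group.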

[1] = endpoint: mean survival time, dose: 100.0 mg/kg/injection, schedule: Q01DX001 (ip), vehicle: saline
[2] = endpoint: mean survival time, dose: 200.0 mg/kg/injection, schedule: Q01DX001 (ip), vehicle: saline
[3] = endpoint: mean survival time, dose: 400.0 mg/kg/injection, schedule: Q01DX001 (ip), vehicle: saline
[4] = endpoint: mean survival time, dose: 100.0 mg/kg/injection, schedule: Q04DX002 (ip), vehicle: saline with Tween-80
[5] = endpoint: mean survival time, dose: 200.0 mg/kg/injection, schedule: Q04DX002 (ip), vehicle: saline with Tween-80
[6] = endpoint: mean survival time, dose: 400.0 mg/kg/injection, schedule: Q04DX002 (ip), vehicle: saline with Tween-80

Measured: T/C

CCC1(O)C(=O)OCc2c1cc1n(c2=O)Cc2cc3ccc(C(F)(F)F)cc3nc2-1 (configuration not stated)
inactive: endpoint: median survival time, dose: 10.0 mg/kg/injection, schedule: Q04DX002 (ip), vehicle: saline with Tween-80 103 % of control | endpoint: median survival time, dose: 20.0 mg/kg/injection, schedule: Q04DX002 (ip), vehicle: saline with Tween-80 100 % of control | endpoint: median survival time, dose: 40.0 mg/kg/injection, schedule: Q04DX002 (ip), vehicle: saline with Tween-80 104 % of control | endpoint: median survival time, dose: 80.0 mg/kg/injection, schedule: Q04DX002 (ip), vehicle: saline with Tween-80 104 % of control

CC(=O)OCC1OC(OC(C)=O)C(NC(=O)N(CCN(C)CCO)N=O)C(OC(C)=O)C1OC(C)=O (configuration not stated)
inactive: endpoint: mean survival time, dose: 4.06 mg/kg/injection, schedule: Q04DX002 (ip), vehicle: saline + alcohol 100 % of control | endpoint: mean survival time, dose: 8.13 mg/kg/injection, schedule: Q04DX002 (ip), vehicle: saline + alcohol 101 % of control | endpoint: mean survival time, dose: 16.25 mg/kg/injection, schedule: Q04DX002 (ip), vehicle: saline + alcohol 101 % of control | endpoint: mean survival time, dose: 32.5 mg/kg/injection, schedule: Q04DX002 (ip), vehicle: saline + alcohol 97 % of control | endpoint: mean survival time, dose: 65.0 mg/kg/injection, schedule: Q04DX002 (ip), vehicle: saline + alcohol 101 % of control | endpoint: mean survival time, dose: 130.0 mg/kg/injection, schedule: Q04DX002 (ip), vehicle: saline + alcohol 107 % of control

CS(=O)(=O)OCC1C(COS(C)(=O)=O)N(S(C)(=O)=O)S(=O)N1S(C)(=O)=O (configuration not stated)
inactive: [1] 100 % of control | endpoint: mean survival time, dose: 100.0 mg/kg/injection, schedule: Q04DX003 (ip), vehicle: saline 111 % of control | [2] 95 % of control | endpoint: mean survival time, dose: 200.0 mg/kg/injection, schedule: Q04DX003 (ip), vehicle: saline 108 % of control | [3] 94 % of control | endpoint: mean survival time, dose: 400.0 mg/kg/injection, schedule: Q04DX003 (ip), vehicle: saline 91 % of control

OC(CC(O)(C(F)(F)F)C(F)(F)F)c1cccc(C(F)(F)F)c1 (configuration not stated)
inactive: endpoint: mean survival time, dose: 132.0 mg/kg/injection, schedule: Q04DX003 (ip), vehicle: other 98 % of control | endpoint: mean survival time, dose: 200.0 mg/kg/injection, schedule: Q04DX003 (ip), vehicle: other 94 % of control | endpoint: mean survival time, dose: 300.0 mg/kg/injection, schedule: Q04DX003 (ip), vehicle: other 93 % of control

O=S(OCC1COS(=O)O1)OCC1COS(=O)O1 (configuration not stated)
inactive: endpoint: mean survival time, dose: 100.0 mg/kg/injection, schedule: Q01DX001 (ip), vehicle: saline sonified 106 % of control | endpoint: mean survival time, dose: 200.0 mg/kg/injection, schedule: Q01DX001 (ip), vehicle: saline sonified 97 % of control | endpoint: mean survival time, dose: 400.0 mg/kg/injection, schedule: Q01DX001 (ip), vehicle: saline sonified 104 % of control

NS(=O)(=O)OCCCCCCCOS(N)(=O)=O
inactive: endpoint: median survival time, dose: 12.5 mg/kg/injection, schedule: Q01DX009 (ip), vehicle: saline with Tween-80 114 % of control and 116 % of control and 110 % of control

CC[S+](CC)CC
inactive: endpoint: mean survival time, dose: 50.0 mg/kg/injection, schedule: Q01DX009 (ip), vehicle: saline 100 % of control | endpoint: mean survival time, dose: 100.0 mg/kg/injection, schedule: Q01DX009 (ip), vehicle: saline 97 % of control

O=c1[nH]c(=O)n(C2OC(CO)C(O)C2O)cc1Br (configuration not stated)
inactive: [4] 109 % of control | [5] 101 % of control | [6] 101 % of control

C/C(=N/NC(N)=S)c1ccc(NC(=O)C(Cl)Cl)cc1
inactive: endpoint: mean survival time, dose: 75.0 mg/kg/injection, schedule: Q01DX001 (ip), vehicle: saline 100 % of control | endpoint: mean survival time, dose: 150.0 mg/kg/injection, schedule: Q01DX001 (ip), vehicle: saline 96 % of control

COc1cccc(N2CCN(CC(O)COc3ccc(N)cc3)CC2)c1 (configuration not stated)
inactive: endpoint: mean survival time, dose: 6.25 mg/kg/injection, schedule: Q04DX002 (ip), vehicle: other 98 % of control | endpoint: mean survival time, dose: 12.5 mg/kg/injection, schedule: Q04DX002 (ip), vehicle: other 95 % of control | endpoint: mean survival time, dose: 25.0 mg/kg/injection, schedule: Q04DX002 (ip), vehicle: other 107 % of control

NC(=O)c1csc(COCC(O)CO)n1 (configuration not stated)
inactive: endpoint: median survival time, dose: 33.0 mg/kg/injection, schedule: Q01DX009 (ip), vehicle: water 101 % of control | endpoint: median survival time, dose: 66.0 mg/kg/injection, schedule: Q01DX009 (ip), vehicle: water 103 % of control | endpoint: median survival time, dose: 132.0 mg/kg/injection, schedule: Q01DX009 (ip), vehicle: water 107 % of control | endpoint: median survival time, dose: 264.0 mg/kg/injection, schedule: Q01DX009 (ip), vehicle: water 101 % of control

N#Cc1nnn(C2OC(CO)C(O)C2O)c1C#N (configuration not stated)
inactive: endpoint: mean survival time, dose: 12.5 mg/kg/injection, schedule: Q01DX005 (ip), vehicle: other 100 % of control | endpoint: mean survival time, dose: 25.0 mg/kg/injection, schedule: Q01DX005 (ip), vehicle: other 97 % of control | endpoint: mean survival time, dose: 50.0 mg/kg/injection, schedule: Q01DX005 (ip), vehicle: other 96 % of control | endpoint: mean survival time, dose: 100.0 mg/kg/injection, schedule: Q01DX005 (ip), vehicle: other 94 % of control | endpoint: mean survival time, dose: 200.0 mg/kg/injection, schedule: Q01DX005 (ip), vehicle: other 102 % of control

CC1CC(C)(C)N=C(CCNCc2ccccc2)O1 (configuration not stated)
inactive: endpoint: mean survival time, dose: 6.25 mg/kg/injection, schedule: Q01DX001 (ip), vehicle: saline 95 % of control | endpoint: mean survival time, dose: 12.5 mg/kg/injection, schedule: Q01DX001 (ip), vehicle: saline 110 % of control | endpoint: mean survival time, dose: 25.0 mg/kg/injection, schedule: Q01DX001 (ip), vehicle: saline 103 % of control

BrC/C(=N\N1CCCCC1)c1ccc(Br)cc1
inactive: endpoint: mean survival time, dose: 25.0 mg/kg/injection, schedule: Q01DX009 (ip), vehicle: saline sonified 100 % of control | endpoint: mean survival time, dose: 50.0 mg/kg/injection, schedule: Q01DX009 (ip), vehicle: saline sonified 96 % of control | [1] 94 % of control | endpoint: mean survival time, dose: 100.0 mg/kg/injection, schedule: Q01DX009 (ip), vehicle: saline sonified 96 % of control | [2] 102 % of control | [3] 95 % of control

Nc1nc(-c2cccc([N+](=O)[O-])c2)c(N=Nc2cccc([N+](=O)[O-])c2)s1
inactive: endpoint: mean survival time, dose: 100.0 mg/kg/injection, schedule: Q01DX001 (ip), vehicle: saline with Tween-80 89 % of control | endpoint: mean survival time, dose: 400.0 mg/kg/injection, schedule: Q01DX001 (ip), vehicle: saline with Tween-80 90 % of control

CNC(=O)c1ccccc1N=NN(C)C
inactive: endpoint: mean survival time, dose: 18.75 mg/kg/injection, schedule: Q01DX009 (ip), vehicle: Klucel (hydroxypropylcellulose) (HPC) 98 % of control and 103 % of control and 106 % of control | endpoint: mean survival time, dose: 37.5 mg/kg/injection, schedule: Q01DX009 (ip), vehicle: Klucel (hydroxypropylcellulose) (HPC) 122 % of control and 98 % of control and 105 % of control | endpoint: mean survival time, dose: 75.0 mg/kg/injection, schedule: Q01DX009 (ip), vehicle: Klucel (hydroxypropylcellulose) (HPC) 122 % of control

CC1(c2ccccc2)C=CC(=O)CC1 (configuration not stated)
inactive: [4] 93 % of control | [5] 101 % of control | [6] 97 % of control

CCOC(=O)C12CCCCCC1CC(=O)CC2 (configuration not stated)
inactive: endpoint: mean survival time, dose: 100.0 mg/kg/injection, schedule: Q04DX003 (ip), vehicle: acetone 96 % of control | endpoint: mean survival time, dose: 200.0 mg/kg/injection, schedule: Q04DX003 (ip), vehicle: acetone 93 % of control | endpoint: mean survival time, dose: 400.0 mg/kg/injection, schedule: Q04DX003 (ip), vehicle: acetone 86 % of control

O=C(N/N=C/c1ccc2c(c1)CCC2)c1ccccc1[N+](=O)[O-]
inactive: endpoint: mean survival time, dose: 100.0 mg/kg/injection, schedule: Q01DX001 (ip), vehicle: Klucel (hydroxypropylcellulose) (HPC) 95 % of control | endpoint: mean survival time, dose: 200.0 mg/kg/injection, schedule: Q01DX001 (ip), vehicle: Klucel (hydroxypropylcellulose) (HPC) 94 % of control | endpoint: mean survival time, dose: 200.0 mg/kg/injection, schedule: Q04DX003 (ip), vehicle: saline with Tween-80 89 % of control | endpoint: mean survival time, dose: 400.0 mg/kg/injection, schedule: Q01DX001 (ip), vehicle: Klucel (hydroxypropylcellulose) (HPC) 97 % of control | endpoint: mean survival time, dose: 400.0 mg/kg/injection, schedule: Q04DX003 (ip), vehicle: saline with Tween-80 96 % of control
